Our source for the TGI and GI50 values is PubChem BioAssay (NCI).

Molecules are shown by their SMILES. ≈ marks a conversion by molar mass, not a printed value.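 1) Cells in 96-well plates. 2) Compound, 48 h, 5 concentrations. 3) Linear interpolation between surrounding doses. 4) Unreached endpoint = highest concentration. Abbreviation: GI50, concentration required for 50% inhibition of growth. TGI is the concentration that stops growth completely.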

Common to all, as to assay: growth of human tumour cells (NCI), 48 h
Assay [1] concerns HOP-18 NSCLC.
Assay [2] deals with LXFL 529 NSCLC.
Assay [3] relates to DLD-1 colon.
Assay [4] concerns SNB-78 CNS.
Assay [5] relates to MDA-N.
Assay [6] deals with RXF-631 renal.
The test system of assay [7] is M19-MEL melanoma.
The test system of assay [8] is DMS 114 small cell lung.
For assay [9], the system named is XF 498 CNS.

`CCOC(=O)C1CCn2c(nc3c2c(=O)n(C)c(=O)n3C)S1` (configuration not stated): the TGI in [1], in [2], in assay [3] and in assay [4] was above 100 µM throughout.

For `COC(=O)C1C(O)CCC2CN3CCc4c([nH]c5cccc(OC)c45)C3CC21` (configuration not stated), in [5], the TGI is above 100 µM.

For `O=C(CCN1CC2CCC(CC2)C1)c1cccs1`, the TGI in assay [5] was 34.7 µM.

For `N#CC(c1ccccc1)N1CCCN(C(C#N)c2ccccc2)C1c1ccccc1O` (configuration not stated), in [5], the TGI was above 100 µM.

For `CC1(C)CC(=O)C2=C(C1)NC(SSC1=C(C#N)C(c3ccc(F)cc3)C3=C(CC(C)(C)CC3=O)N1)=C(C#N)C2c1ccc(F)cc1` (configuration not stated), in assay [5], the GI50 was 27.2 µg/mL (≈ 41.5 µM) and the TGI is 48.4 µg/mL.

Consider `C[C@]12CCC(=O)C=C1CC[C@@H]1[C@@H]2[C@@H](O)C[C@@]2(C)[C@H]1CC[C@]2(O)C(=O)CO`, for which the TGI in assay [5] was above 100 µM.

Regarding `CC(=O)N(C)c1ccc2c(ccc[n+]2[O-])c1[N+](=O)[O-]`, the TGI in [1], in assay [2], in assay [3], in assay [6], in assay [7] and in assay [4] was above 100 µM in each case. Also, the TGI in [8] and in [9] was above 100 µM in each case.

As to `Nc1nc(N)c2c(n1)NC(c1ccccc1)CC(/C=C/c1ccc(Cl)cc1)=N2` (configuration not stated), in [5], the TGI worked out at 24.4 µM.

As to `O=[n+]1c2c(n([O-])c3ccccc31)-c1cccc3cccc-2c13`, the TGI in [5] is above 100 µM.

`[O-][N+](CCO)(CCO)c1ncnc2nc[nH]c12`: in assay [5], the TGI is above 100 µM.

For `COC(=O)C1C(C)N1C` (configuration not stated), the TGI in assay [2], in [3], in assay [6], in assay [7], in [4] and in [8] was above 100 µM in each case. Moreover, the TGI in assay [9] was above 100 µM.

As for `CC(Sc1ccccc1)C(CO)(CO)[N+](=O)[O-]` (configuration not stated), the TGI in assay [1] amounted to 45.6 µM; in assay [2] it was 27.5 µM; in assay [3] it was 29 µM; in assay [7], 30.9 µM; in assay [4] it was 66.7 µM; in assay [8], 32.5 µM.

Regarding `C[C@]12CC[C@@H]3c4ccccc4CC[C@H]3[C@@H]1CC[C@@H]2O`, the TGI in assay [2], in [3], in [7] and in [4] was above 100 µM each time.

With `Clc1ccc(Nc2nc(Cl)c3[nH]cnc3n2)cc1Cl`, the TGI in assay [5] is above 100 µM.

Take `Cc1cc(O)c(C(C)C)cc1CN1CCCCC1`: in [5], the TGI is above 100 µM.

With `CC(=O)OC1CC(O)CC2=CCC3C4CCC(C(C)(O)C(O)CC5COC(=O)C5C)C4(C)CCC3C21C` (configuration not stated), in assay [5], the TGI was above 25 µM.

In the case of `C/C(=N\NC(=O)c1cccnc1)c1cccc(/C(C)=N/NC(=O)c2cccnc2)n1`, the GI50 in [1] is 1.06 µM; in assay [2], 2.47 µM; in assay [4], 7.53 µM; in [8] it was 2.7 µM. Also, the TGI in assay [1] is 6.15 µM; in assay [2], above 100 µM; in [3], above 100 µM; in assay [7], 68.6 µM; in assay [4] it was 97.9 µM; in [8] it was 15.9 µM.

Regarding `Nc1ccc2c(c1)C(=O)N(O)C2=O`, the TGI in assay [2], in [3], in assay [7], in assay [4], in [8] and in [9] was above 100 µM throughout.
